Test system: mouse counterpart genes
Assay: Mouse GeneChip (MG-U74A to MG-U74C) analysis of lung and trachea of the OVA antigen-exposed bronchial hypersensitivity model, S-Sal group versus S-OVA group
Type: in vivo
[1] = S-Sal group versus S-OVA group, MG-U74 chip A, 1st
[2] = S-Sal group versus S-OVA group, MG-U74 chip A, 2nd
[3] = S-Sal group versus S-OVA group, MG-U74 chip A, 3rd
[4] = S-Sal group versus S-OVA group, MG-U74 chip B, 1st
[5] = S-Sal group versus S-OVA group, MG-U74 chip B, 2nd
[6] = S-Sal group versus S-OVA group, MG-U74 chip B, 3rd
[7] = S-Sal group vs S-OVA group, 1st, chip A, P/A call A
[8] = S-Sal group vs S-OVA group, 1st, chip A, P/A call P
[9] = S-Sal group vs S-OVA group, 1st, chip B, P/A call A
[10] = S-Sal group vs S-OVA group, 1st, chip B, P/A call P
[11] = S-Sal group vs S-OVA group, 1st, chip C, P/A call P
[12] = S-Sal group vs S-OVA group, 2nd, chip A, P/A call A
[13] = S-Sal group vs S-OVA group, 2nd, chip A, P/A call P
[14] = S-Sal group vs S-OVA group, 2nd, chip B, P/A call A
[15] = S-Sal group vs S-OVA group, 2nd, chip B, P/A call P
[16] = S-Sal group vs S-OVA group, 2nd, chip C, P/A call P
[17] = S-Sal group vs S-OVA group, 3rd, chip A, P/A call A

ovalbumin [OVA antigen, ovalbumin antigen used for sensitization and inhalation to induce bronchial hypersensitivity in mice]
Fold Change 1st, contactin 1 (mouse Probe ID 92936_at) [1]: 1.3
Fold Change 1st, lectin, galactose binding, soluble 1 (mouse Probe ID 99669_at) [1]: 1.6
Fold Change 1st, peptidyl arginine deiminase, type I (mouse Probe ID 95343_at) [1]: 1.3
Fold Change 1st, peptidyl arginine deiminase, type III (mouse Probe ID 103803_at) [1]: 2.2
Fold Change 2nd, contactin 1 (mouse Probe ID 92936_at) [2]: 1.9
Fold Change 2nd, lectin, galactose binding, soluble 1 (mouse Probe ID 99669_at) [2]: 2
Fold Change 2nd, peptidyl arginine deiminase, type I (mouse Probe ID 95343_at) [2]: 0.83
Fold Change 2nd, peptidyl arginine deiminase, type III (mouse Probe ID 103803_at) [2]: 1.4
Fold Change 3rd, contactin 1 (mouse Probe ID 92936_at) [3]: 0.44
Fold Change 3rd, lectin, galactose binding, soluble 1 (mouse Probe ID 99669_at) [3]: 1.3
Fold Change 3rd, peptidyl arginine deiminase, type I (mouse Probe ID 95343_at) [3]: 0.67
Fold Change 3rd, peptidyl arginine deiminase, type III (mouse Probe ID 103803_at) [3]: 1.5
Fold Change 1st, aquaporin 5 (mouse Probe ID 113916_at) [4]: 0.77
Fold Change 1st, contactin 1 (mouse Probe ID 105826_at) [4]: 0.83
Fold Change 1st, contactin 1 (mouse Probe ID 164059_f_at) [4]: 1.7
Fold Change 2nd, aquaporin 5 (mouse Probe ID 113916_at) [5]: 0.83
Fold Change 2nd, contactin 1 (mouse Probe ID 105826_at) [5]: 1
Fold Change 2nd, contactin 1 (mouse Probe ID 164059_f_at) [5]: 0.91
Fold Change 3rd, aquaporin 5 (mouse Probe ID 113916_at) [6]: 0.59
Fold Change 3rd, contactin 1 (mouse Probe ID 105826_at) [6]: 1.1
Fold Change 3rd, contactin 1 (mouse Probe ID 164059_f_at) [6]: 0.77
Fold Change 1st, contactin 1 (mouse Probe ID 170177_r_at) (S-Sal group versus S-OVA group, MG-U74 chip C, 1st): 0.67
Fold Change 2nd, contactin 1 (mouse Probe ID 170177_r_at) (S-Sal group versus S-OVA group, MG-U74 chip C, 2nd): 1.1
Fold Change 3rd, contactin 1 (mouse Probe ID 170177_r_at) (S-Sal group versus S-OVA group, MG-U74 chip C, 3rd): 1.5
Fold Change, AXL receptor tyrosine kinase (mouse probe 99136_at) [7]: 0.357
Fold Change, claudin 4 (mouse probe 101410_at) [7]: 1.8
Fold Change, histocompatibility-2 complex class I-like sequence (mouse probe 101433_at) [7]: 0.526
Fold Change, interferon gamma inducible protein 30 (mouse probe 97444_at) [7]: 1.3
Fold Change, interleukin 1 receptor-like 1 (mouse probe 98500_at) [7]: 1.3
Fold Change, low density lipoprotein receptor-related protein associated protein 1 (mouse probe 161988_f_at) [7]: 1.3
Fold Change, matrix metalloproteinase 7 (mouse probe 92917_at) [7]: 2.3
Fold Change, met proto-oncogene (mouse probe 100309_at) [7]: 0.667
Fold Change, phosphotidylinositol transfer protein, beta (mouse probe 102697_at) [7]: 0.303
Fold Change, A kinase anchor protein 2 (mouse probe 101435_at) [8]: 0.833
Fold Change, DNA segment. Chr 16. ERATO Doi 269, expressed (mouse probe 97822_at) [8]: 1
Fold Change, DNA segment. Chr 16. ERATO Doi 269, expressed (mouse probe 97823_g_at) [8]: 1.1
Fold Change, arachidonate 15-lipoxygenase (mouse probe 98758_at) [8]: 1.1
Fold Change, cholesterol 25-hydroxylase (mouse probe 104509_at) [8]: 1.1
Fold Change, claudin 5 (mouse probe 104516_at) [8]: 1.1
Fold Change, decay accelerating factor 1 (mouse probe 103617_at) [8]: 1.2
Fold Change, interferon-stimulated protein (20 kDa) (mouse probe 103432_at) [8]: 1
Fold Change, low density lipoprotein receptor-related protein associated protein 1 (mouse probe 100086_at) [8]: 1.1
Fold Change, membrane-associated protein 17 (mouse probe 96935_at) [8]: 1
Fold Change, phosphotidylinositol transfer protein, beta (mouse probe 102696_s_at) (S-Sal group vs S-OVA group, 1st, chip A, P/A call P, counterpart of human probe 353_at): 1.3
Fold Change, phosphotidylinositol transfer protein, beta (mouse probe 102696_s_at) (S-Sal group vs S-OVA group, 1st, chip A, P/A call P, counterpart of human probe 35017_f_at): 1.3
Fold Change, histocompatibility 2, Q region locus 7 (mouse probe 98438_f_at) (S-Sal group vs S-OVA group, 1st, chip A, P/A call P, counterpart of human probe 37420_i_at): 1.3
Fold Change, histocompatibility 2, Q region locus 7 (mouse probe 98438_f_at) (S-Sal group vs S-OVA group, 1st, chip A, P/A call P, counterpart of human probe 37421_f_at): 1.3
Fold Change, A kinase (PRKA) anchor protein 10 (mouse probe 163162_at) [9]: 0.5
Fold Change, ESTs Putative Ortholog of ISG-54K gene (mouse probe 164273_at) [9]: 1
Fold Change, ESTs, Highly similar to AF116721 8 PRO0907 [H. sapiens] (mouse probe 114151_at) [9]: 1
Fold Change, neurotrophic tyrosine kinase, receptor type 1 (mouse probe 110116_at) [9]: 2.5
Fold Change, secreted end transmembrane 1 (mouse probe 115133_at) [9]: 0.435
Fold Change, MP and activin membrane-bound inhibitor, homolog (Xanopus laevis) (mouse probe 162531_at) [10]: 1
Fold Change, decay accelerating factor 1 (mouse probe 107626_at) [10]: 1.3
Fold Change, viral hemorrhagic septicemia virus(VHSV) induced gene 1 (mouse probe 109385_at) [10]: 0.769
Fold Change, cholesterol 25-hydroxylase (mouse probe 133666_at) (S-Sal group vs S-OVA group, 1st, chip C, P/A call A): 0.588
Fold Change, deleted in bladder cancer chromosome region candidate 1 (human) Putative Ortholog (mouse probe 166806_at) [11]: 1.4
Fold Change, interferon-induced protein with tetratricopeptide repeats 1 (mouse probe 168299_f_at) [11]: 1.3
Fold Change, interleukin 1 receptor-like 1 (mouse probe 98501_at) (S-Sal group vs S-OVA group, 2nd, chip A): 1.8
Fold Change, AXL receptor tyrosine kinase (mouse probe 99136_at) [12]: 0.476
Fold Change, a disintegrin and metalloprotease domain 8 (mouse probe 103024_at) [12]: 3.4
Fold Change, claudin 4 (mouse probe 101410_at) [12]: 3.4
Fold Change, histocompatibility-2 complex class I-like sequence (mouse probe 101433_at) [12]: 0.625
Fold Change, interferon gamma inducible protein 30 (mouse probe 97444_at) [12]: 1.9
Fold Change, matrix metalloproteinase 7 (mouse probe 92917_at) [12]: 1.6
Fold Change, met proto-oncogene (mouse probe 100309_at) [12]: 1
Fold Change, phosphotidylinositol transfer protein, beta (mouse probe 102697_at) [12]: 0.333
Fold Change, matrix metalloproteinase 7 (mouse probe 162318_r_at) (S-Sal group vs S-OVA group, 2nd, chip A, P/A call M): 1.7
Fold Change, A kinase anchor protein 2 (mouse probe 101435_at) [13]: 0.833
Fold Change, DNA segment. Chr 16. ERATO Doi 269, expressed (mouse probe 97821_at) [13]: 1
Fold Change, DNA segment. Chr 16. ERATO Doi 269, expressed (mouse probe 97823_g_at) [13]: 1.1
Fold Change, arachidonate 15-lipoxygenase (mouse probe 98758_at) [13]: 3.5
Fold Change, cholesterol 25-hydroxylase (mouse probe 104509_at) [13]: 3.1
Fold Change, claudin 5 (mouse probe 104516_at) [13]: 1.2
Fold Change, decay accelerating factor 1 (mouse probe 103617_at) [13]: 1.5
Fold Change, interferon-stimulated protein (20 kDa) (mouse probe 103432_at) [13]: 1.2
Fold Change, interleukin 1 receptor-like 1 (mouse probe 98500_at) [13]: 3.4
Fold Change, polycystic kidney disease 2 (mouse probe 100951_at) [13]: 0.667
Fold Change, phosphotidylinositol transfer protein, beta (mouse probe 102696_s_at) (S-Sal group vs S-OVA group, 2nd, chip A, P/A call P, counterpart of human probe 353_at): 1
Fold Change, phosphotidylinositol transfer protein, beta (mouse probe 102696_s_at) (S-Sal group vs S-OVA group, 2nd, chip A, P/A call P, counterpart of human probe 35017_f_at): 1
Fold Change, histocompatibility 2, Q region locus 7 (mouse probe 98438_f_at) (S-Sal group vs S-OVA group, 2nd, chip A, P/A call P, counterpart of human probe 37420_i_at): 1.4
Fold Change, histocompatibility 2, Q region locus 7 (mouse probe 98438_f_at) (S-Sal group vs S-OVA group, 2nd, chip A, P/A call P, counterpart of human probe 37421_f_at): 1.4
Fold Change, ESTs Putative Ortholog of ISG-54K gene (mouse probe 164273_at) [14]: 1
Fold Change, ESTs, Highly similar to AF116721 8 PRO0907 [H. sapiens] (mouse probe 114151_at) [14]: 1.2
Fold Change, decay accelerating factor 1 (mouse probe 164905_r_at) [14]: 1
Fold Change, neurotrophic tyrosine kinase, receptor type 1 (mouse probe 110116_at) [14]: 1.2
Fold Change, secreted end transmembrane 1 (mouse probe 115133_at) [14]: 0.5
Fold Change, decay accelerating factor 1 (mouse probe 107626_at) [15]: 1.6
Fold Change, interferon gamma inducible protein 30 (mouse probe 164423_at) [15]: 4
Fold Change, viral hemorrhagic septicemia virus(VHSV) induced gene 1 (mouse probe 109385_at) [15]: 1.7
Fold Change, deleted in bladder cancer chromosome region candidate 1 (human) Putative Ortholog (mouse probe 166806_at) [16]: 1.5
Fold Change, interferon-induced protein with tetratricopeptide repeats 1 (mouse probe 168299_f_at) [16]: 1.1
Fold Change, interleukin 1 receptor-like 1 (mouse probe 98501_at) (S-Sal group vs S-OVA group, 3rd, chip A): 1
Fold Change, AXL receptor tyrosine kinase (mouse probe 99136_at) [17]: 0.25
Fold Change, a disintegrin and metalloprotease domain 28 (mouse probe 101723_r_at) [17]: 1.8
Fold Change, histocompatibility-2 complex class I-like sequence (mouse probe 101433_at) [17]: 0.833
